Literature values in patent US20050249799A1, “Polymeric drug delivery system for hydrophobic drugs” (Spherics, Inc., priority 2004, published 2005).
Like-named read-outs stand apart in the source and are kept apart here. Each block holds one molecule with its values, some of them ahead of it.

How the values were obtained:
[1] = not given; remark: listed apart in the source

SMILES: Nc1nc2c(ncn2COCCO)c(=O)[nH]1 [Acyclovir, 2-amino-1,9-dihydro-9-[(2-hydroxyethoxy)methyl]-6H-purin-6-one]
absolute bioavailability (200 mg dose given every 4 hours): 20%

time to peak plasma concentrations (oral): 4 to 24 h
bioavailability (tablet form): 89%
solubility in water [1]: practically insoluble
SMILES: NC(=O)N1c2ccccc2C=Cc2ccccc21 [Carbamazepine, 5H-dibenz[b,f]azepine-5-carboxamide]

SMILES: CCC(C)n1ncn(-c2ccc(N3CCN(c4ccc(OCC5COC(Cn6cncn6)(c6ccc(Cl)cc6Cl)O5)cc4)CC3)cc2)c1=O (centres unmarked) [itraconazole, Itraconazole]
bioavailability (oral capsule): 55%

half-life (in vivo): 4 to 5 h
increase in plasma concentration on doubling the dose (oral): 30-40%
time to peak plasma concentrations (oral): ≤ 2 h
SMILES: C#C[C@]1(O)CC[C@H]2[C@@H]3CCC4=Cc5oncc5C[C@]4(C)[C@H]3CC[C@@]21C [Danazol, 17a-Pregna-2,4-dien-20-yno[2,3-d]-isoxazol-17-ol]
